The test system of assay [1] is NCI-60 panel of cancer cell-lines. In words: NCI-60 DTP Human Tumor Cell Line Screen at 5 doses (whole panel). The class given is cell-based. To be noted: SNB-75, K562, A498, LOX IMV1, HS 578T and MDA-MB-231 among others (Fig. 5). The protocol:
Compound 2 was screened by the National Cancer Institute (NCI) at 5 doses on the NCI-60 DTP Human Tumor Cell Line Screen.
Compound 2 was further screened against cancer cell lines by the National Cancer Institute (NCI). This screen was performed as per the description provided at http://dtp.nci.nih.gov/branches/btb/ivclsp.html. "The NCI 60 panel cell lines were grown in RPMI 1640 medium supplemented with 5% (v/v) fetal bovine serum and 2 mM L-glutamine at 37° C, 5 % CO2, 95 % air and 100 % relative humidity. Cells were seeded at 5,000 - 40,000 cells/well depending on their doubling time. After 24 hours of incubation, DMSO stock solutions of the compounds (400X) were added at 5 different concentrations (in […] serial dilutions). After 48 h cells were fixed with trichloroacetic acid (10% or 16% final concentration for adherent cells and suspension cells respectively) and incubated for 60 minutes at 4°C. […] The bound stain was solubilized with 10mM trizma base and determined by absorbance measurement on an automated plate reader at a wavelength of 515 nm. The percentage growth inhibition was calculated as followed, being Tz time zero measurements, C control growth measurements and Ti test growth experiments in the present of the drug. […]
Three dose response parameters were calculated for each cell line. […] Total growth inhibition (TGI) is calculated from Ti = Tz. […]

The next assay addresses T1, EphA3 (Homo sapiens, UniProt P29320).
T1 sequence (P29320 21-983): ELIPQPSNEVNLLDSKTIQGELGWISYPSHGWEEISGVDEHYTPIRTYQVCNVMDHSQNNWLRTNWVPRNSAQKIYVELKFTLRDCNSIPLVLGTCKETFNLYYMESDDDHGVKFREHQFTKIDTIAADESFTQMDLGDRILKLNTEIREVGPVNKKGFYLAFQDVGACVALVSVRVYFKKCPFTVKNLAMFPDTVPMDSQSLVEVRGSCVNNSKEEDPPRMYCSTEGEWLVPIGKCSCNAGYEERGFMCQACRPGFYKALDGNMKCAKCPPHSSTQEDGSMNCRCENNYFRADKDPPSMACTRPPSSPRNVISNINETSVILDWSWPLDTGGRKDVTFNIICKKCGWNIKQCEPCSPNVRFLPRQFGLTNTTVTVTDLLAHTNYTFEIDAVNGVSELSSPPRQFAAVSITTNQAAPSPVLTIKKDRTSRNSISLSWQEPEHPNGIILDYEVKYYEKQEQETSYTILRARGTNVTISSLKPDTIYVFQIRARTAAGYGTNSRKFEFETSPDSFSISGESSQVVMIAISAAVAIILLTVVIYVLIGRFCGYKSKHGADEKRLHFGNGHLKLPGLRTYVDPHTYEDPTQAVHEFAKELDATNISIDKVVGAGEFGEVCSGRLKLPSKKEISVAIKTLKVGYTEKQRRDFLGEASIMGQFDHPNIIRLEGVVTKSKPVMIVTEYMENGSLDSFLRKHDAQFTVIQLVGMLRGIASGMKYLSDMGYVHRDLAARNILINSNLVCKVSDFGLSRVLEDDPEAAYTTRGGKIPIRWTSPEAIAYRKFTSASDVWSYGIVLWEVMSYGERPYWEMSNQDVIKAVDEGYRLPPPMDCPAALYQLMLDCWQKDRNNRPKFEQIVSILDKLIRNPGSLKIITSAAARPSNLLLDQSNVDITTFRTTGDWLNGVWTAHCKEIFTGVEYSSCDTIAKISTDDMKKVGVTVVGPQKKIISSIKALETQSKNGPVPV
The assay can be described thus: Surface Plasmon Resonance (SPR) determination of binding and unbinding kinetics. To be noted: immobilized EphA3, 25 °C. The protocol: The affinity of compound 2 towards EphA3 was determined using Surface Plasmon Resonance measurements on a ProteOn XPR36 (Bio-Rad Laboratories, AG). EphA3 was immobilized on a GLH chip (Bio-Rad Laboratories AG) by standard amine coupling procedures achieving a RU of 4000-6000 and equilibrated with steriled-filtered buffer (10mM HEPES, 150mM NaCl, 3mM EDTA, 0.005% Tween 20 pH 8.0) with a flow rate of 60µL/min. Association of compound 2 was performed at 25 °C using serial dilutions of the inhibitors in duplicates for 400s, whereas dissociation of the inhibitors from the chip was monitored for 36,000 seconds. Data were normalized using interspot referencing and subtraction of a separate analyte channel run with buffer and BSA. All sensograms were fitted using a 1:1 Langmuir model provided by the ProteOn Manager Software (Bio-Rad Laboratories AG), and the association (kon) and dissociation ([…]) rate constants were used to determine the equilibrium dissociation constants (KD).

Assay [2] concerns MDA-MB-231 breast cancer cells. The assay can be described thus: Efficacy in a Xenograft Mouse Model. The class given is in vivo. To be noted: female NCr Nu/Nu mice, subcutaneous MDA-MB-231, 50 mg/kg oral twice daily, 21 days. The protocol:
The effect of compound 2 on MDA-MB-231 breast cancer cells was examined. The breast cancer cells were implanted subcutaneously in xenograft mouse models and the development of the body weight and the tumor volume were observed over time (21 days). Group 1 is the vehicle control group consisting of 9 animals, whereas group 2 consisted of 9 animals receiving 50 mg/kg of compound 2 twice-daily.
9 week old female NCr Nu/Nu mice (Charles River Laboratories, Inc.) were injected at the flank with 5x10^6 MDA-MB-231 cells. Once tumor volume reached 108-126 mm^3 (as measured by digital caliper) mice were randomized into a treatment and vehicle-control group of 9 animals each. The treatment group received oral doses of 50 mg/kg of compound 2 twice daily for 21 days (with the exception of a single dose on the first day), formulated as a homogeneous suspension in DMSO/1% methylcellulose (5/95, v/v). The control group received the same formulation but excluding compound 2. Tumor volume of all mice was evaluated bi-weekly up to day 19.

Here are results for one compound from EP2924040A1, “2-Amino-1-(o-tolyl)pyrrolo[3,2-b]quinoxaline-3-carboxamide derivates” (Universität Zürich, priority 2014, dated 2015).

As usually defined, the Kd is the equilibrium constant for the complex coming apart. What is called residence time is how long the partners stay bound on average. Regarding `Cc1ccc(O)cc1-n1c(N)c(C(N)=O)c2nc3ccccc3nc21` [Compound 2, 2-Amino-1-(5-hydroxy-2-methylphenyl)-1H-pyrrolo[2,3-b]quinoxaline-3-carboxamide], in assay [1], the “potency (GI50 and/or TGI and/or LC50) relative to select cell-lines” value is recorded as “high potency”. The Kd at EphA3 (1:1 Langmuir model, read-out: dissociation constant (KD)) came out at 6 nM. In addition, the residence time on EphA3 (reciprocal value of koff, read-out: τoff (residence time) (converted)) is 11 min. The group-median tumor volume entry in assay [2] was “remarkable group-median tumor volume control”.
